{"source": "patent US6291637A", "about": "(priority 1999, dated 2001)", "key": {"[1]": {"system": "poliovirus IRES-dependent translation (P2CAT RNA)", "assay_type": "biochemical"}, "[2]": {"system": "cap-dependent translation (CAT RNA)", "assay_type": "biochemical"}, "[3]": {"system": "cellular translation"}, "[4]": {"system": "PV"}, "[5]": {"system": "poliovirus 5'-UTR (IRES)-mediated translation", "assay_type": "biochemical"}}, "note": "Where no end group is shown, it is not given here.", "data": [{"molecule": "5' GCGCGGGCAGCGCA 3' (chemistry not given here) [BI-RNA]", "values": [{"measurement": "inhibition of poliovirus IRES-mediated translation of P2CAT RNA", "setting": "[1]", "result": "specifically inhibiting translation by internal initiation"}, {"measurement": "inhibition of cap-dependent translation of CAT (pG3CAT/pCAT) RNA", "setting": "[2]", "result": "not cap dependent-translation"}]}, {"molecule": "AALEAKICHQIEYYFGDF [LAP]", "values": [{"measurement": "effect on cellular translation", "setting": "[3]", "result": "does not interfere with cellular translation"}, {"measurement": "entry into human cells", "setting": "[4]", "result": "appears to freely diffuse into human cells"}]}, {"molecule": "La protein (protein, UniProt P05455 1-408, looked up) Lupus La protein: MAENGDNEKMAALEAKICHQIEYYFGDFNLPRDKFLKEQIKLDEGWVPLEIMIKFNRLNRLTTDFNVIVEALSKSKAELMEISEDKTKIRRSPSKPLPEVTDEYKNDVKNRSVYIKGFPTDATLDDIKEWLEDKGQVLNIQMRRTLHKAFKGSIFVVFDSIESAKKFVETPGQKYKETDLLILFKDDYFAKKNEERKQNKVEAKLRAKQEQEAKQKLEEDAEMKSLEEKIGCLLKFSGDLDDQTCREDLHILFSNHGEIKWIDFVRGAKEGIILFKEKAKEALGKAKDANNGNLQLRNKEVTWEVLEGEVEKEALKKIIEDQQESLNKWKSKGRRFKGKGKGNKAAQPGSGKGKVQFQGKKTKFASDDEHDEHDENGATGPVKRAREETDKEEPASKQQKTENGAGDQ", "values": [{"measurement": "effect on viral 5'-UTR-mediated translation", "setting": "[5]", "result": "Significant stimulation"}, {"measurement": "reversal of I-RNA-mediated inhibition of translation", "setting": "[5]", "result": "reversed"}]}]}
